Results taken from patent publication US9410197B2, “Compound for sequencing by synthesis” (Roche Diagnostics Operations, Inc., priority 2013, dated 2016).
Where “and” joins values, the source holds several entries; their conditions need not be identical. Equal values may be shown once.

Columns and labels:
[1] = Cleavage of the 3′-O-nitro group with cysteamine-NaOH; format: physicochemical; conditions: aqueous cysteamine-NaOH (pH 9.0), 1.0 to 2.0 M cysteamine, after 5 minutes at 50° C.
Description: 10 to 100 nmol of 3′-O-nitro-thymidine 2 were dissolved in an aqueous solution of cysteamine-NaOH (pH 9.0) to obtain a final nucleoside concentration of 0.17 to 1.7 nmol/μL and a final cysteamine concentration of 1.0 to 2.0 M. Reaction control was performed via analytical reversed-phase chromatography using 0.1 M triethylammonium acetate (pH 7.0)/acetonitrile gradient as eluent.

[2] = molecular target: T1, Therminator II DNA polymerase (Thermococcus sp., UniProt Q56366, A485L/D141A/E143A/Y409V); format: biochemical
T1 construct: purchased New England Biolabs
T1 sequence (Q56366 1-775 D141A/E143A/Y409V/A485L): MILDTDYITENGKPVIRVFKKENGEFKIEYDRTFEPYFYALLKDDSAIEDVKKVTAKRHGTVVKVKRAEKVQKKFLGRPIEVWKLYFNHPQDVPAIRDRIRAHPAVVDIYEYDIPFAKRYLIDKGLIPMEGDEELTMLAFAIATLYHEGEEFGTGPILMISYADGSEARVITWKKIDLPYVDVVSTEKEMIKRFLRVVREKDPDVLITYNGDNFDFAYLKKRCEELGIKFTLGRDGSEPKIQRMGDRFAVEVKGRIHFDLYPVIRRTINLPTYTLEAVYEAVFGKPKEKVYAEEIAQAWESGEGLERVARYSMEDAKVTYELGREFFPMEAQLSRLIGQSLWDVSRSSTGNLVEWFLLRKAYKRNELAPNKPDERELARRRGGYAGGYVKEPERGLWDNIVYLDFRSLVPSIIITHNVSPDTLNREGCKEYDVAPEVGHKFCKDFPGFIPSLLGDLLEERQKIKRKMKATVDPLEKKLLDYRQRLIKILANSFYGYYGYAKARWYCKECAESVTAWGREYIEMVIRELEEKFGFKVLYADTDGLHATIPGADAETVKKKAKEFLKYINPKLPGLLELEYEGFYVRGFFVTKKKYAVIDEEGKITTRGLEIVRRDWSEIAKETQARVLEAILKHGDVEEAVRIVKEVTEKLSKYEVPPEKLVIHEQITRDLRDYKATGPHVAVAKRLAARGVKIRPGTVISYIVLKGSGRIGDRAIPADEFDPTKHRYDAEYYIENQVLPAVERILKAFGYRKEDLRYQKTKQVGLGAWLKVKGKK

Row | cleavage of the nitrate group [1] | Structure (SMILES) | acceptance as substrate by Therminator II DNA polymerase [2] | incorporation by Therminator II DNA polymerase [2] | primer + dNTP MWfound [2]
1 | Quantitative cleavage | Cc1cn([C@H]2C[C@H](O[N+](=O)[O-])[C@@H](CO)O2)c(=O)[nH]c1=O [Compound 2, 3′-O-Nitro-β-D-thymidine] |  |  | 
2 |  | Cc1cn([C@H]2C[C@H](O[N+](=O)[O-])[C@@H](COP(=O)([O-])OP(=O)([O-])OP(=O)([O-])[O-])O2)c(=O)[nH]c1=O.[Na+].[Na+].[Na+].[Na+] [Compound 3, 3′-O-Nitro-β-D-thymidine 5′-triphosphate, tetrasodium salt] | accepted as substrates | incorporated efficiently | 5108.2 DA and 5108.1 DA and 5108.3 DA and 5108.4 DA
